# Laboratory results taken from EP2657347A1, “Electrochemical competitive assay and use thereof” (Université Paris Diderot - Paris 7, priority 2012, dated 2013).
# Assays:
# D-Apt49 = assay: Redox-mediated catalytic cyclic voltammetry titration with aptamer; format: binding
# Method: All experiments were performed in 5 mM Tris buffer (pH 7) containing 10 mM MgCl2 and 50 mM NaCl (Recognition Buffer, RBr). The L-Tym concentration is always 5 µM. For cyclic voltammetric experiments, 1 µM [Os(bpy)3]2+ with 5 µM 1-Tym in a droplet of 50 µL RBr was used. So, before each experiment, the droplet is shaking with a micropipette. This procedure is repeated until we obtain a reproducible and stable voltammogram. Mother solution of Fc-1-Tym was a […] solution in DMF. This product is conserved at 4°C and seal with parafilm. Before each experiment, this solution is diluted 10 times in stabilized DMF, such as 0.2 µL in 50 µL of RBr leads to 5 µM of Fc-1-Tym.
# Cyclic voltammetry measurements were performed with an AUTOLAB PGSTAT 12 potentiostat/galvanostat controlled by computer, and the data were acquired using GPES 4.9007 software (EcoChemie, The Netherlands). Small self-contained electrochemical cells made of 3 screen-printed electrodes on a flat substrate were used for all experiments. The electrodes were printed using a DEK model-65 screen-printer. Working electrodes were 4 mm diameter screen-printed carbon electrodes prepared using a commercial carbon ink (Electrodag PF-470 A) deposited on the top of an underlying Ag layer (Electrodag 418 SS). Counter electrode was obtained using an Ag ink (Electrodag 418 SS).
# Before experiments, the screen-printed carbon electrodes were coated with bovine serum albumin (BSA) by immersing the electrodes in a 1 mg/mL BSA solution for 10 minutes at room temperature. The BSA-modified electrodes were next cycled between 0 V and 0.8 V at v = 0.05 V/s, until of the capacitive background current in cyclic voltammetry was stablized.
# The 49-mer aptamer we have used (see here above) is a sequence similar to the one that was previously selected by Vianini et al and successfully applied to chromatographic- and fluorescence-based L-Tym assays. Since direct electrochemical oxidation of phenolic compounds generally leads to electrode passivation and thus to poorly reproducible anodic peak current in cyclic voltammetry (CV), the electrochemical detection of L-Tym was performed by redox-mediated catalytic oxidation of the phenolic function. For such a purpose, we have used the one-electron redox mediator couple [Os^III/II(bpy)3]^3+/2+ which, according to its relatively high standard potential (E^0=+0.58 V vs. Ag/AgCl), is capable to efficiently catalyze the oxidation of phenolic compounds. [drawing 51]
# The linear dependence of the peak current with both the square root of scan rate, v, and L-Tym concentration, indicates conditions of total catalysis for which the catalytic peak current response, ip, can be expressed by eq 1. ip = 0.609nFSCT^0 sqrt(DT)sqrt(fv/RT) [formula] where n is the number of electron involved in the catalytic reaction, F the Faraday constant, S the electrode area, C^0T the bulk concentration of L-Tym, and DT the diffusion coefficient of L-Tym. After aptamer addition, the binding reaction (eq 2) is rapidly set at equilibrium. [drawing 53] with Kd the dissociation constant. On the basis of a classical law of action mass and mass balance (i.e., C^0T = CT + CRT, with CT and CRT the free and receptor-bound target concentrations), and assuming a 1:1 binding stoichiometry, the free (χƒ) mole fraction of target in the bulk solution can thus be estimated by eq 3. χf = (CT)/(CT^0) = 1-(Kd + CT^0 + CR^0 -sqrt(((Kd+CT^0+CR^0))^2 -4CT^0 CR^0))/(2CT^0) [formula]
# Here, C^0R is the total concentration of the aptamer receptor added to the solution. Under the assumption of a slow interconversion of free and bound target on the time scale of CV experiments, the catalytic peak current can thus be expressed by a linear combination of the catalytic currents related to the free and bound target through eq 4. ip = 0.609nFSCT^0 sqrt(fv/RT)[χfsqrt(DT)+(1-χf)sqrt(DRT)] [formula] where DT and DRT are the diffusion coefficients of the free and receptor-bound target, respectively. […]
# [1] = tested on: 49-mer scramble oligonucleotide; assay: Redox-mediated catalytic cyclic voltammetry titration with random DNA control; format: binding; conditions: random sequence with the same GC ratio
# Method: 2-Amino-1,3-propanediol hydrochloride (Aldrich), 2-amino-1,3-propanediol (Aldrich), NaCl (Fluka), MgCl2 (Sigma), 1-tyrosinamide (Aldrich), d-tyrosinamide (Millegen, France), paracetamol (Aldrich) and tyrosine (Sigma), triphenylphosphine (Aldrich), diethylazidocarboxylate solution (DEAD) (Aldrich), and ferrocene methanol (Aldrich) were used without further purification. All syntheses were performed with freshly distilled solvents (THF and MeOH). The oligonucleotides (1-DNA and d-DNA) were synthesized and HPLC-purified by Eurogentec (Anger, France) and their concentration was controlled by UV-Vis spectroscopy using a Nanodrop 2000 spectrophotometer (ThermoFisher). The oligonucleotides sequences were: • Apt49-T: (SEQ ID NO: 1) 5'-[…] ― 3' • Scramble: (SEQ ID NO: 2) 5'- […] ― 3'
# All experiments were performed in 5 mM Tris buffer (pH 7) containing 10 mM MgCl2 and 50 mM NaCl (Recognition Buffer, RBr). The L-Tym concentration is always 5 µM. For cyclic voltammetric experiments, 1 µM [Os(bpy)3]2+ with 5 µM 1-Tym in a droplet of 50 µL RBr was used. So, before each experiment, the droplet is shaking with a micropipette. This procedure is repeated until we obtain a reproducible and stable voltammogram. Mother solution of Fc-1-Tym was a […] solution in DMF. This product is conserved at 4°C and seal with parafilm. […]
# [2] = target: anti-L-tyrosinamide aptamer; conditions: previously determined by fluorescence polarization; cited from earlier work
smiles,measurement,setting,value
"NC(=O)[C@@H](N)Cc1ccc(O)cc1 [L-Tym, L-tyrosinamide]",Kd,"D-Apt49; 5 µM target, 1 µM [Os(bpy)3]2+, 5 mM Tris buffer pH 7.0, 50 mM NaCl, 10 mM MgCl2, nonlinear fit of eq 5",2900 ± 300 nM
same,DRT (diffusion coefficient of the receptor-bound target),"D-Apt49; L-Tym bound to D-Apt49, assuming one electron exchanged",1.4 × 10^-6 cm^2 s^-1
same,DT (diffusion coefficient of the free target),"D-Apt49; free L-Tym, assuming one electron exchanged",7 × 10^-6 cm^2 s^-1
same,current response when the aptamer was replaced by a 49-mer random DNA sequence,[1],no significant current response decrease
same,Kd,[2],1700 to 2200 nM
